From patent US8592421B2, “Cyclic bioisosters of purine system derivatives and a pharmaceutical composition based thereon” (priority 2003, dated 2013)

Legend:
[1] = Chronic toxicity of suppositories: indexes of urine; format: in vivo, rats; conditions: rats, suppositories rectal, 1 month after administration
Experimental: The experiments were conducted on inbred rats.

[2] = Chronic toxicity of suppositories: biochemical indexes of blood serum; format: in vivo, rats; conditions: male rats, suppositories, 1 month; for Cholesterol in blood serum: control 3.02 ± 0.08; for Urea in blood serum: control 8.44 ± 0.60; for Glucose in blood serum: control 9.76 ± 0.15; for ALT in blood serum: control 11.33 ± 1.96; for AST in blood serum: control 19.13 ± 1.02; for Bilirubin in blood serum: control 35.93 ± 2.19; for Creatinine in blood serum: control 40.23 ± 2.84; for Alkalinous phosphatase in blood serum: control 40.74 ± 1.57; for Total protein in blood serum: control 94.89 ± 6.67;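 as to all read-outs here: inbred rats dosed rectally with softened suppositories, controls given matching volumes of sterile medical liquid paraffin, serum sampled one month into a two-month dosing course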
Experimental: Two doses of preparations used in the experiments: 50 mg/kg and 500 mg/kg. Before the administration, the suppositories were softened by heating in a glass water bath at a temperature of 38-39° C., the soft mass was collected in tuberculin syringe in a volume of 1 ml, a needle with oliva was attached to the syringe, and the preparatory mass was introduced into the rectum of the animal for a depth of 1.5-2.0 cm. The animals of the control group were administered with sterile medical liquid paraffin in a volume corresponding to the volume of the investigated suppository. A complete course of administration of drugs to the animals was two months. A complex of laboratory diagnostic investigations was carried out one month after the beginning of the administration of the preparation to the animal—in a middle of the course (8 animals), two months after ending the course (8 animals) and three months after ending the recovery period of one month (8 animals). The mass of the body of the rats in the first month of administration of the preparation was determined weekly, and then once in two weeks. On the basis of the dynamics of an index of the mass of the animal body, the volume of preparation being administered was corrected taking into account the test dose.

[3] = Morphine abstinence model: thymus condition (mass, nitrites); format: in vivo, rats; conditions: for Nitrites in thymus supernatant: control 0.331 ± 0.041; for Thymus mass: control 230 ± 14
Text: The spectrometric method is based the reaction of nitrites with the Griss reagent (a mixture of 2% solution of sulfanilamide and 0.2% N-(1-naphthyl)ethylene diamine. At the first step the nitrite reacts with sulfanilamide with formation of diazonium salt, and then with the second component to form azo dye with an adsorption maximum at 540 nm. For reduction of nitrates into nitrites, a fermentative method was used with bacterial reductase nitrate (Grisham M. B. et al., 1995). The samples of plasma and supernathant of the liver deproteinizated at 100° C. for 5 minutes incubated for 30 minutes at 37° C. in 50.0 mM of HEPES pH 7.4 in the presence of 0.2 unit/ml of Aspergillus reductase nitrate, 5.0 mkM of FAD and 0.1 mM of NAD-Ph. At the end of the reaction lactate dehydrogenase and pyruvate were added for isolation of NAD-Ph interfering with the Griss reaction. Then the Griss reagent was added and after 10-minute incubation the light absorption of the samples was measured at 540 nm. To amount of NOX^− was calculated using sodium nitrate as a standard.
The effect of the compounds according to the invention on the condition of the thymus of the rats was also investigated: a control group, an experimental group of morphinized animals and an experimental group of animals were first morphinized and then injected with the compounds according to the invention. The experiment was carried out similarly to that described above.

[4] = Morphine abstinence model: indicator enzymes ALT, AST, γ-GTP in blood plasma; conditions: 20.0 mg/kg intramuscularly three times a day; for γ-GTP in blood plasma, Ci: control 6.261 ± 1.80; for ALT in blood plasma, Ci: control 106.76 ± 111.35; for AST in blood plasma, Ci: control 179.881 ± 11.94
Experimental: The experiments were carried out on rats in series of 7 animals on each compound according to the invention. Non-morphinized animal with not administered with compounds according to the invention were used as a control group. […] Then the rats were decapitated, the blood from somnolent arteries was collected in test tubes with solution EDTA as an anticoagulant, centrifuged at 1500 g for 15 minutes at 4° C.
To estimate possible hepatoprotective action of the compounds according to the invention under conditions of development of an oxidizing stress in the liver cells, effect of these compounds on the most important biochemical blood indexes, in particular, on the content in blood plasma of indicator enzyme of aspartateaminotransferase (AST), alanineaminotransferase (ALT), γ-glutamiletranspeptidase (γ-GTP) was investigated. The content of enzymes was estimated by their catalyzing activity in blood plasma.
The activity of AST, ALT and γ-GTP was determined by means of diagnostic sets DiaSys, Germany.

[5] = tested on: synthase of nitrogen oxide (NOC); assay: Morphine abstinence model: activity of synthase of nitrogen oxide (NOC), radiometric [3H]L-citrulline method; format: in vivo, rats Wistar; conditions: 20.0 mg/kg intramuscularly; for Activity of NOC: Mesencephalon: control 2.18 ± 0.09; for Activity of NOC: Hypothalamus: control 5.37 ± 0.20
[6] = Administration of morphine and compound

O=c1[nH][nH]c(=O)c2c(Br)ncnc12.[K] [Compound 37, potassium salt of 4-bromine-pyrimido[4,5-D]-6H-pyridazine-5,8-dione]
Bilirubin (urine) ([1]; dose 50 mg/kg): <5 Mkmol/l
Glucose (urine) ([1]; dose 50 mg/kg): <5 mmol/L
Ketone bodies (urine) ([1]; dose 50 mg/kg): <1 mmol/L
Potassium (urine) ([1]; dose 50 mg/kg): 6.12 ± 1.4 g/L
Protein (urine) ([1]; dose 50 mg/kg): 0.70 ± 0.19 g/L
Sodium (urine) ([1]; dose 50 mg/kg): 1.4 ± 0.2 g/L
Urea (urine) ([1]; dose 50 mg/kg): 427 ± 137 mmol/L
Urobilinogen (urine) ([1]; dose 50 mg/kg): <15 Mkmol/l
pH (urine) ([1]; dose 50 mg/kg): 6.4 ± 0.4
Bilirubin (urine) ([1]; dose 500 mg/kg): <5 Mkmol/l
Glucose (urine) ([1]; dose 500 mg/kg): <5 mmol/L
Ketone bodies (urine) ([1]; dose 500 mg/kg): <1 mmol/L
Potassium (urine) ([1]; dose 500 mg/kg): 6.44 ± 1.3 g/L
Protein (urine) ([1]; dose 500 mg/kg): 0.72 ± 0.14 g/L
Sodium (urine) ([1]; dose 500 mg/kg): 0.88 ± 0.4 g/L
Urea (urine) ([1]; dose 500 mg/kg): 489 ± 152 mmol/L
Urobilinogen (urine) ([1]; dose 500 mg/kg): <15 Mkmol/l
pH (urine) ([1]; dose 500 mg/kg): 6.2 ± 0.3
Cholesterol in blood serum ([2]; 50 mg/kg): 2.48 ± 0.62 mmol/L
Urea in blood serum ([2]; 50 mg/kg): 9.36 ± 0.62 Mkmol/l
Glucose in blood serum ([2]; 50 mg/kg): 9.9 ± 0.51 mM
ALT in blood serum ([2]; 50 mg/kg): 8.98 ± 2.43 unit/l
AST in blood serum ([2]; 50 mg/kg): 19.97 ± 2.78 unit/1
Bilirubin in blood serum ([2]; 50 mg/kg): 42.17 ± 3.28 mmol/L
Creatinine in blood serum ([2]; 50 mg/kg): 46.84 ± 2.92 mkmol/l
Alkalinous phosphatase in blood serum ([2]; 50 mg/kg): 41.86 ± 5.26 unit/l
Total protein in blood serum ([2]; 50 mg/kg): 89.44 ± 7.22 g/L
Cholesterol in blood serum ([2]; 500 mg/kg): 2.64 ± 0.46 mmol/L
Urea in blood serum ([2]; 500 mg/kg): 10.57 ± 0.56 Mkmol/l
Glucose in blood serum ([2]; 500 mg/kg): 10.9 ± 0.84 mM
ALT in blood serum ([2]; 500 mg/kg): 9.56 ± 1.34 unit/l
AST in blood serum ([2]; 500 mg/kg): 18.21 ± 1.87 unit/1
Bilirubin in blood serum ([2]; 500 mg/kg): 41.45 ± 7.18 mmol/L
Creatinine in blood serum ([2]; 500 mg/kg): 47.13 ± 9.82 mkmol/l
Alkalinous phosphatase in blood serum ([2]; 500 mg/kg): 42.18 ± 2.34 unit/l
Total protein in blood serum ([2]; 500 mg/kg): 70.88 ± 7.24 g/L
Nitrites in thymus supernatant ([3]; Administration of compounds): 0.410 ± 0.01 nmol/mg of protein
Thymus mass ([3]; Administration of compounds): 263 ± 21 mg
Nitrites in thymus supernatant [3, 6]: 0.387 ± 0.01 nmol/mg of protein
Thymus mass [3, 6]: 228 ± 15 mg
γ-GTP in blood plasma, Ci ([4]; Control + compound): 8.14 ± 2.64 mE/l
ALT in blood plasma, Ci ([4]; Control + compound): 113.84 ± 2.0 mE/l
AST in blood plasma, Ci ([4]; Control + compound): 174.82 ± 4.91 mE/l
γ-GTP in blood plasma, Ci ([4]; control + Morphine + Compound): 10.32 ± 2.67 mE/l
ALT in blood plasma, Ci ([4]; control + Morphine + Compound): 120.84 ± 5.20 mE/l
AST in blood plasma, Ci ([4]; control + Morphine + Compound): 193.58 ± 14.18 mE/l
Activity of NOC: Mesencephalon ([5]; Control + Compound): 2.62 ± 0.27 pmol/min/mg of protein
Activity of NOC: Hypothalamus ([5]; Control + Compound): 5.61 ± 0.22 pmol/min/mg of protein
Activity of NOC: Mesencephalon ([5]; Control + Morphine + compound): 1.85 ± 0.30 pmol/min/mg of protein
Activity of NOC: Hypothalamus ([5]; Control + Morphine + compound): 5.59 ± 0.22 pmol/min/mg of protein
